Values of other authors as cited in patent publication US20230357868A1 (priority 2021, published 2023).

How the values were obtained:
[1] = tested on: potato spindle tuber viroid (PSTVd); settings: LAMP reaction
[2] = LAMP visualization reagent

For `O=S(=O)([O-])c1ccc2c(N=Nc3c(O)cc(S(=O)(=O)[O-])c4ccccc34)c(O)c(S(=O)(=O)[O-])cc2c1.[Na+].[Na+].[Na+]` [Hydroxynaphthol blue (HNB)], the Effect on amplification [1] is given as “None” and the Toxicity [2] is given as “May cause eye irritation”.
For `CCCN(CCCN(C)C)c1cc(/C=C2/Sc3ccccc3N2C)c2ccccc2[n+]1-c1ccccc1` [SYBR Green I], the Effect on amplification [1] is listed as “Not inhibiting when used 0.5-1x” and the Toxicity [2] is listed as “Mutation enhancer”.
For `O=P([O-])([O-])OP(=O)([O-])[O-].[Mg+2].[Mg+2]` [Mg-pyrophosphate (Mg-PPi)], the Effect on amplification [1] is given as “None”.
